According to publication PMC7705431 (Cell Research, 2020):

Tests used:
SARS-CoV-2 = assay type: cell-based
human ACE2 = biological target: T1, human ACE2 (Homo sapiens, UniProt Q9BYF1); experiment: SPR binding to immobilized human ACE2 (BIAcore S200); conditions: read-out: ka
T1 construct: purchased Sino Biological Inc. 10108-H08B
Method: The remaining activated sites on the chip were blocked with 75 μL of ethanolamine (1 M, pH 8.5). […] The equilibrium dissociation constant (KD) for binding as well as the association (Ka) and dissociation (Kd) rate constants were determined using the BIA evaluation program (GE, USA).

cathepsin L = biological target: T2, cathepsin L (Homo sapiens, UniProt P07711); experiment: Cathepsin L activity assay (fluorometric kit); assay type: biochemical
T2 construct: purchased Abcam ab65306
Method: A positive control of cathepsin L inhibitor I (CTSL, MG-101, 20 μM) was provided in the kit. A total of 2 μL of 10 mM Ac-FR-AFC substrate was added to each well. The samples were incubated at 37 °C for 2 h. Fluorescence was measured using a multifunctional microplate reader (Cytation 3, BioTek, Winooski, VT, USA), at an excitation wavelength of 400 nm and an emission wavelength of 505 nm.

[1] = rhesus monkey, in vivo
in vitro = conditions: Vero E6 cells
[2] = cited from earlier work
[3] = cited from earlier work; remark: listed apart in the source
[4] = preclinical and clinical studies; cited from earlier work
[5] = biological target: T3, SARS-CoV-2 spike protein–ACE2 interaction (Homo sapiens, UniProt Q9BYF1); experiment: co-IP of SARS-CoV-2 spike protein with ACE2, western blot; assay type: biochemical; conditions: drug 10 μM; western blot with anti-ACE2 antibody
Method: Co-IP was performed as follows. […] The blots were incubated with anti-rabbit IgG HRP (KPL, USA) and imaged using electrochemiluminescence (ECL, ThermoFisher, USA).

[6] = biological target: T3, SARS-CoV-2 spike protein–ACE2 interaction; experiment: ELISA of SARS-CoV-2 spike protein binding to ACE2 crosslinked to microplates; assay type: biochemical; conditions: drug 1 μM; 1 h 37 °C

T3 sequence (Q9BYF1 18-740): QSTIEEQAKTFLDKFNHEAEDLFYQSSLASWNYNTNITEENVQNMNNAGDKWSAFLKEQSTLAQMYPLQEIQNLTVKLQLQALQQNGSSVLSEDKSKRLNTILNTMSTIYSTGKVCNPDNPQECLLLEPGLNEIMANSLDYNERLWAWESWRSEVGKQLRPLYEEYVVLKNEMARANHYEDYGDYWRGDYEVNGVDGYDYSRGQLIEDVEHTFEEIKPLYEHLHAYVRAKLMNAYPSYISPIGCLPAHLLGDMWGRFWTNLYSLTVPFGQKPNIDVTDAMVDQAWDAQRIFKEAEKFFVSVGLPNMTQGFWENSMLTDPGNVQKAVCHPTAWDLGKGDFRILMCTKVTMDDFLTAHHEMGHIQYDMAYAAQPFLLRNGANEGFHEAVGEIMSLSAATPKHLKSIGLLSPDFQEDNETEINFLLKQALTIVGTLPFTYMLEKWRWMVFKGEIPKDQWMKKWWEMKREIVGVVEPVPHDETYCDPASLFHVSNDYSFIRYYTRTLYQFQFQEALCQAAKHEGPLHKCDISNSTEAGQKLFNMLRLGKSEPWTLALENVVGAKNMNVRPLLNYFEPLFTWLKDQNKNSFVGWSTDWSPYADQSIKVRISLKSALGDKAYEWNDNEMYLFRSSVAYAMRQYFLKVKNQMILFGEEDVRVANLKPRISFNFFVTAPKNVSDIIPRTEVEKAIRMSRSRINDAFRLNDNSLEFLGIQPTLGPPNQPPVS
T2 sequence (P07711 114-333, species assumed): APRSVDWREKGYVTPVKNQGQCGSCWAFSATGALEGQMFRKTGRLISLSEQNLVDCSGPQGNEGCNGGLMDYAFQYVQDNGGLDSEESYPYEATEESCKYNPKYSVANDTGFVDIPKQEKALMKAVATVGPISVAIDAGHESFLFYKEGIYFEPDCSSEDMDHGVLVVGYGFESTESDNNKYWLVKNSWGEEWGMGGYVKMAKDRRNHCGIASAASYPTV
T1 sequence (Q9BYF1 18-805): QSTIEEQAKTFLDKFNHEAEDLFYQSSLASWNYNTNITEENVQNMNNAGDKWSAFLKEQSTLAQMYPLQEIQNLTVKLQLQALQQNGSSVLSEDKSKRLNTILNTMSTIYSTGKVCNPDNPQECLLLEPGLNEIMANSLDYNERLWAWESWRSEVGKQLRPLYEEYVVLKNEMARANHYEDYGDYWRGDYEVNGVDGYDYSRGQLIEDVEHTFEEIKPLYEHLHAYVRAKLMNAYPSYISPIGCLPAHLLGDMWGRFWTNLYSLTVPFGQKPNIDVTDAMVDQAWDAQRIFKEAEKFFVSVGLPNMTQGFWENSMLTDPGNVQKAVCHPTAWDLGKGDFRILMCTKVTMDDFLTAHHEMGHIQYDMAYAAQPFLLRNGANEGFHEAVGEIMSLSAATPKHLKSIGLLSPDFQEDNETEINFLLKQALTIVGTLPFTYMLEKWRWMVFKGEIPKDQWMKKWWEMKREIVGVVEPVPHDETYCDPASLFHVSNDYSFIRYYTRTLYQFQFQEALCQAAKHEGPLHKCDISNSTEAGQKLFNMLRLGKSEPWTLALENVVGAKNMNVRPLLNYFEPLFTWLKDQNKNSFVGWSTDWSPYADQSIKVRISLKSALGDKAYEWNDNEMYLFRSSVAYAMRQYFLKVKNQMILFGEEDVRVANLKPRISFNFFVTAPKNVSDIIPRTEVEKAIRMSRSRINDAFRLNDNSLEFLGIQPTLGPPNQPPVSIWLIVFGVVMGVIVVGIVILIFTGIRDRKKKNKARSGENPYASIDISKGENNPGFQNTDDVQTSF

Molecule: CCC(CC)COC(=O)[C@H](C)N[P@](=O)(OC[C@H]1O[C@@](C#N)(c2ccc3c(N)ncnn23)[C@H](O)[C@@H]1O)Oc1ccccc1 [Remdesivir]
- inhibition of CPEs (SARS-CoV-2): significantly inhibited the CPEs

Molecule: CN[C@H]1C(=O)N[C@@H]2Cc3ccc(cc3)Oc3cc4cc(c3O[C@@H]3O[C@H](C(=O)O)[C@@H](O)[C@H](O)[C@H]3NC(=O)CCCCCCCCC(C)C)Oc3ccc(cc3Cl)[C@@H](O)[C@@H]3NC(=O)[C@H](NC(=O)[C@@H]4NC(=O)[C@@H](NC2=O)c2cc(cc(O)c2Cl)Oc2cc1ccc2O)c1ccc(O)c(c1)-c1c(O[C@H]2O[C@H](CO)[C@@H](O)[C@H](O)[C@@H]2O)cc(O)cc1[C@@H](C(=O)NCCCN(C)C)NC3=O [dalbavancin]
- kon (human ACE2): 360000 M⁻¹ s⁻¹
- inhibition at 400 µM (cathepsin L; read-out: inhibition of cathepsin L enzymatic activity): ~40%
- serum half-life [1]: 120 to 170 h
- CC50 (in vitro): > 3.2 µM
- plasma half-life [2]: 120 to 170 h
- protein-bound in plasma [3]: > 90%
- tolerability [4]: well tolerated

Molecule: Oxiglutatione
- suppression of SARS-CoV-2 spike protein–ACE2 co-precipitation [5]: suppressed the interaction
- inhibition of binding of SARS-CoV-2 spike protein to ACE2 (ELISA) [6]: inhibited the binding

Molecule: Polymyxin B sulfate
- suppression of SARS-CoV-2 spike protein–ACE2 co-precipitation [5]: suppressed the interaction

Molecule: cathepsin L inhibitor I
- inhibition of cathepsin L enzymatic activity (cathepsin L; 20 μM, positive control, Ac-FR-AFC substrate, 37 °C 2 h): ~ 100%
